Measured values: patent publication US20260001864A1, “COMPOUND CONTAINING SULFAMIDE STRUCTURE, AND PREPARATION METHOD THEREFOR AND APPLICATION THEREOF, AND PHARMACEUTICAL COMPOSITION AND APPLICATION” (Nanjing Shuohui Pharmatechnology Co., Ltd, priority 2021, published 2026)

Tests used:
[1] = target: H+/K+-ATPase (rabbit gastric mucosal microsomes) (Oryctolagus cuniculus (Rabbit), UniProt P27112); assay: In vitro screening test of H+/K+-ATPase inhibition (malachite green); format: biochemical; settings: pH 6.5, 37° C. 30 min, read-out: IC50, inhibitory effect on H+/K+-ATPase activity
Description: This test example evaluates the inhibitory effects of the compounds of the present invention on the activity of H+/K+-ATPase by an in vitro screening test, and expresses them with the IC50 values of the compounds (obtained by calculating the inhibition rates at different concentrations).
• Compound solutions: The products (i.e., the compounds or the hydrochloride salt of compounds) obtained in the foregoing preparation examples of the present invention were each independently dissolved in DMSO to form solutions at suitable concentrations; • Buffer I: 50 mmol/L HEPEs-Tris, pH=6.5, 5 mmol/L magnesium chloride, […] valinomycin (J&K Scientific Ltd., goods No.: 227304); • Buffer II: 50 mmol/L HEPEs-Tris, pH=6.5, 5 mmol/L magnesium chloride, […] valinomycin, 5 mmol/L potassium chloride; • 5-adenosine triphosphate (ATP, Sigma-Aldrich, goods No.: A2383) solution: Dilute ATP with buffer I to 5 mM; • Malachite green solution: Dissolve 0.12 wt % malachite green (J&K Scientific Ltd., goods No.: 913120) in 2.5 mol/L sulfuric acid, 7.5 wt % ammonium molybdate (J&K Scientific Ltd., goods No.: 128321) and 11% Tween 20(V/V). During use, sulfuric acid, ammonium molybdate and Tween 20 are mixed in a ratio of 100:25:2; • Rabbit gastric mucosal microsomes (rich in H+/K+-ATPase, self-extracted), extracted by sucrose gradient centrifugation: The rabbit stomach was washed with tap water and 3M NaCl solution, respectively, and then the surface water was removed with filter paper. A pre-cooled homogenization buffer (4 ml/g tissue) was added and homogenized for 2-5 min in a tissue homogenizer. After the homogenizing, if there are large tissue particles, they can be removed by centrifugation (600 g, 10 min). The supernatant was then transferred to a clean centrifuge tube and centrifuged at 20,000 g for 30 min, then the supernatant was transferred to a clean centrifuge tube and further centrifuged at 100,000 g for 90 min and the precipitate was collected; the precipitate was suspended in homogenate and blown evenly, and the protein concentration was measured by the Bradford's method and adjusted to 10 mg/ml; 7.5 wt % Ficoll's layering solution was added in equal proportions. After centrifugation at 100,000 g for 60 min, the middle layer (H^+/K^+-ATPase-enriched gastric membranes) was collected in a clean centrifuge tube, diluted with homogenate by 4-5 times, and then centrifuged at 100,000 g for another 90 min, and the precipitate was collected; the precipitate was suspended in homogenate and homogenized in a glass homogenizer, and the protein concentration was measured by the Bradford's method and adjusted to 22.5 mg/ml. It was frozen at −80° C. and stored for future use.
5 μL of rabbit gastric mucosal microsomes (H^+/K^+-ATPase) was added to 45 μL of buffer II, then 5 μL of compound solution was added, and then 5 μL of 5 mM ATP solution was added to start the reaction and pre-react at 37° C. for 30 min. 15 μL of malachite green solution was added to terminate the reaction, balancing was conducted at room temperature for 20 min, and read the optical absorbance at 620 nm.
Meanwhile, the reaction of the same volume was carried out without addition of potassium chloride as a background, which was subtracted when calculating enzymatic activity.

[2] = system: histamine-induced gastric acid secretion; assay: Inhibition of histamine-induced gastric acid secretion in rats (pylorus ligation); format: in vivo, rat; settings: SD rats, 2 mg/kg by gavage, total acid over 3 h after histamine
Method: 70 SPF-level SD rats with a weight of 180-220 g (Hangzhou Medical College (produced)), randomly grouped by weight, including negative control groups (isovolumetric saline) and model control groups (isovolumetric saline), and compounds obtained in the foregoing preparation examples of the present invention (i.e., compounds or compound hydrochlorides) (2 mg/kg or 4 mg/kg), 10 rats each group, including 5 males and 5 females. The rats were fasted, but were allowed to drink water for 24 h. After 24 h, the rats were given the compound at 1 ml/100 g by gavage, once in each group, and the rats in the negative control groups and the model groups were given an equal volume of saline by gavage. After that, the rats were anesthetized with chloral hydrate 300 mg/kg (1 ml/100 g) and fixed on a rat plate, and the abdominal wall was incised along the abdominal midline from the subxiphoid process of the sternum, and the incision was approximately 2-3 cm and was made on the left costal margin, and the stomach was exposed to the incision by gently pushing it with the fingers upwards. The pylorus was ligated with a thread under the pylorus (other neighboring vessels were not ligated), and the abdominal wall incision was sutured. The animals were given histamine dihydrochloride (30 mg/10 ml/kg) subcutaneously after 1 h of gavage of the test compound or saline. After 3 h of histamine administration, the rats were asphyxiated with excess CO2, stomachs were removed, stomach contents were collected and centrifuged at 3000 rpm/min for 10 min, and the acid solution was titrated with 0.1 mol/L NaOH to pH7.0. The total acidity and acid inhibition rate during the 3 h period were calculated.
Acid inhibition rate (%)=(Total acid in the model group−total acid in the test group)/total acid in the model group×100%

Sequence of H+/K+-ATPase (rabbit gastric mucosal microsomes) (P27112 whole entry): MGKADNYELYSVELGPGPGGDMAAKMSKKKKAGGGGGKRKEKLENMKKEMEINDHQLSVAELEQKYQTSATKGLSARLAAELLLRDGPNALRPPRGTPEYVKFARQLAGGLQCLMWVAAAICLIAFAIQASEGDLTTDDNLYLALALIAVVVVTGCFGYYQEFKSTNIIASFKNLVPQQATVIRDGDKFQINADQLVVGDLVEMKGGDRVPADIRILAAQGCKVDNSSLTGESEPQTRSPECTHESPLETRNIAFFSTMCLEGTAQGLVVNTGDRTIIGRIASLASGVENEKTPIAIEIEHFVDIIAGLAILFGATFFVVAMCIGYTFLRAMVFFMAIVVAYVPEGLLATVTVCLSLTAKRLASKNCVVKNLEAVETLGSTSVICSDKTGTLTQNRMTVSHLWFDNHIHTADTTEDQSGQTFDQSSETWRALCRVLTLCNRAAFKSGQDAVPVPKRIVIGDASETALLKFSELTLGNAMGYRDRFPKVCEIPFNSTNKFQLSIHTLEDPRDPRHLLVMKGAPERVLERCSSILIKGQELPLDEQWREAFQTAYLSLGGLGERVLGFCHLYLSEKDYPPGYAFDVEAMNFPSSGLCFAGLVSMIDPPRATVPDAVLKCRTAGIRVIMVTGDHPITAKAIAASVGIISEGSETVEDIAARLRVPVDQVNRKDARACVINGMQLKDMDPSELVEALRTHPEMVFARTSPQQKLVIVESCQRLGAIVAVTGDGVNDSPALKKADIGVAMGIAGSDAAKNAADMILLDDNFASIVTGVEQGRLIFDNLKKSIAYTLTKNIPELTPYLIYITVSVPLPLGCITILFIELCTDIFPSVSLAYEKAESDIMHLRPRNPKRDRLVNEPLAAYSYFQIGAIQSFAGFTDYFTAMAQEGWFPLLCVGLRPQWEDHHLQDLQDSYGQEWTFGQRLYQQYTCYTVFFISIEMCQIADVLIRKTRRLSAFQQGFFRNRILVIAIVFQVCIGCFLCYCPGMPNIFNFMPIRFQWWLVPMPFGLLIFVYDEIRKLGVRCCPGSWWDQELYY
Sequence of H+/K+-ATPase (rabbit gastric mucosal microsomes) (P18597 whole entry partner): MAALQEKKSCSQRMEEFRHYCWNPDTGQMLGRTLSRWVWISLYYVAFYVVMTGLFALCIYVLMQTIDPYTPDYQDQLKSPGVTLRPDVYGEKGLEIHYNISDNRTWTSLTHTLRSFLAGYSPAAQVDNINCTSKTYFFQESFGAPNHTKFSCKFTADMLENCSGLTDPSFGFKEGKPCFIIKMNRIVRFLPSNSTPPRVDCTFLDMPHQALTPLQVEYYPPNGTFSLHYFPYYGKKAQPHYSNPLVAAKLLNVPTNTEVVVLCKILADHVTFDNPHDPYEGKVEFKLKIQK

IC50 [1] [nM]	Structure (SMILES)	Acid inhibition rate [2] [%]
149	CNCc1cc(-c2ccc(OCC3CCOCC3)cc2F)n(S(=O)(=O)c2cccnc2)c1 [Compound 6]	48
72.1	CNCc1cc(-c2ccc(OC(C)C3CCOCC3)cc2F)n(S(=O)(=O)c2cccnc2)c1 (stereo not drawn) [Compound 8]	71
41.3	CNCc1cc(-c2ccc(OCc3ccccc3OC(F)F)cc2F)n(S(=O)(=O)c2cccnc2)c1 [Compound 59]	–
186	CNCc1cc(-c2ccc(OCc3ccccc3OC(F)(F)F)cc2F)n(S(=O)(=O)c2cccnc2)c1 [Compound 60]	–
51.3	CNCc1cc(-c2ccc(OCc3ccc(OC(F)F)cc3)cc2F)n(S(=O)(=O)c2cccnc2)c1 [Compound 61]	–
35.9	CNCc1cc(-c2ccc(OCc3cccc4ccccc34)cc2F)n(S(=O)(=O)c2cccnc2)c1 [Compound 62]	–
1060	CNCc1cc(-c2ccc(OCc3cccc4ccccc34)cc2F)n(S(=O)(=O)c2cccc(C#N)c2)c1 [Compound 63]	–
164	CNCc1cc(-c2ccc(OCc3ccc(C(=O)O)cc3)cc2F)n(S(=O)(=O)c2cccnc2)c1 [Compound 64]	–
80.5	CNCc1cc(-c2ccc(OC(C)c3cc(F)ccc3F)cc2F)n(S(=O)(=O)c2cccnc2)c1 (stereo not drawn) [Compound 65]	–
485	CNCc1cc(-c2ccc(O[C@@H](C)c3c(Cl)ccc(F)c3Cl)cc2F)n(S(=O)(=O)c2cccnc2)c1 [Compound 66]	–
41.4	CNCc1cc(-c2ccc(OC(C)c3cc(F)cc(F)c3)cc2F)n(S(=O)(=O)c2cccnc2)c1 (stereo not drawn) [Compound 68]	–
114	CNCc1cc(-c2ccc(OC(C)c3c(F)cccc3F)cc2F)n(S(=O)(=O)c2cccc(C#N)c2)c1 (stereo not drawn) [Compound 69]	–
88.1	CNCc1cc(-c2ccc(OC(C)c3cc(F)cc(F)c3)cc2F)n(S(=O)(=O)c2cccc(C#N)c2)c1 (stereo not drawn) [Compound 70]	–
496	CNCc1cc(-c2ccc(OC(C)c3cc(F)cc(F)c3)cc2F)n(S(=O)(=O)c2cccc(OCC3CC3)c2)c1 (stereo not drawn) [Compound 71]	–
342	CNCc1cc(-c2ccc(OC(C)c3c(F)cccc3F)cc2F)n(S(=O)(=O)c2cccc(OCC3CC3)c2)c1 (stereo not drawn) [Compound 72]	–
209	CNCc1cc(-c2ccc(OCc3ccc(C)cc3C)cc2F)n(S(=O)(=O)c2cccnc2)c1 [Compound 73]	–
564	CNCc1cc(-c2ccc(OCc3ccncc3)cc2F)n(S(=O)(=O)c2cccnc2)c1 [Compound 74]	–
36.6	CNCc1cc(-c2ccc(OCc3ccccc3OC)cc2F)n(S(=O)(=O)c2cccnc2)c1 [Compound 75]	–
470	CNCc1cc(-c2ccc(O[C@H](C)c3c(Cl)ccc(F)c3Cl)cc2F)n(S(=O)(=O)c2cccnc2)c1 [Compound 76]	–
120	CNCc1cc(-c2ccc(OCc3ccsc3)cc2F)n(S(=O)(=O)c2cccnc2)c1 [Compound 77]	–
98.5	CNCc1cc(-c2ccc(OCc3cc(F)ccc3F)cc2F)n(S(=O)(=O)c2cccc(Cl)c2)c1 [Compound 78]	–
55.3	CNCc1cc(-c2ccc(OCc3cc(F)ccc3F)cc2F)n(S(=O)(=O)c2cccc(F)c2)c1 [Compound 79]	–
65.9	CNCc1cc(-c2ccc(OCc3cc(F)ccc3F)cc2F)n(S(=O)(=O)c2cc(F)cc(F)c2)c1 [Compound 80]	–
56.6	CNCc1cc(-c2ccc(OCc3cc(F)ccc3F)cc2F)n(S(=O)(=O)c2ccc(C)c(F)c2)c1 [Compound 81]	–
3660	CCCCCOc1cccc(S(=O)(=O)n2cc(CNC)cc2-c2ccc(OCc3cc(F)ccc3F)cc2F)c1 [Compound 82]	–

IC50 [1] [nM]	Structure (SMILES)	Acid inhibition rate [2] [%]
13300	CNCc1cc(-c2ccc(OC(C)c3c(F)cccc3F)cc2F)n(S(=O)(=O)c2cccc(OCC3CCC3)c2)c1 (stereo not drawn) [Compound 83]	–
109	CNCc1cc(-c2ccc(OCc3cc(F)ccc3F)cc2F)n(S(=O)(=O)c2cccc(OCC3CCCC3)c2)c1 [Compound 84]	–
9780	CNCc1cc(-c2ccc(OC(C)c3c(F)cccc3F)cc2F)n(S(=O)(=O)c2cccc(OCC3CCCC3)c2)c1 (stereo not drawn) [Compound 85]	–
34.4	CNCc1cc(-c2ccc(OCc3cc(F)ccc3F)cc2F)n(S(=O)(=O)c2cccc(OCCOC)c2)c1 [Compound 86]	–
43.4	CNCc1cc(-c2ccc(OCc3ccccc3OC)cc2F)n(S(=O)(=O)c2cccc(OCCOC)c2)c1 [Compound 87]	–
450	CNCc1cc(-c2ccc(OC(C)c3c(F)cccc3F)cc2F)n(S(=O)(=O)c2cccc(OCCCOC)c2)c1 (stereo not drawn) [Compound 88]	–
1330	CNCc1cc(-c2ccc(OC(C)c3cc(F)cc(F)c3)cc2F)n(S(=O)(=O)c2cccc(OCCCOC)c2)c1 (stereo not drawn) [Compound 89]	–
2690	CNCc1cc(-c2ccc(OCc3ccc4ccccc4c3)cc2F)n(S(=O)(=O)c2cccc(OCCCCOC)c2)c1 [Compound 90]	–
693	CNCc1cc(-c2ccc(OC(C)c3c(F)cccc3F)cc2F)n(S(=O)(=O)c2cccc(OCCCCOC)c2)c1 (stereo not drawn) [Compound 91]	–
1910	CNCc1cc(-c2ccc(OC(C)c3cc(F)cc(F)c3)cc2F)n(S(=O)(=O)c2cccc(OCCCCOC)c2)c1 (stereo not drawn) [Compound 92]	–
12400	CNCc1cc(-c2ccc(OCc3cccc4c3OCO4)cc2F)n(S(=O)(=O)c2cccc(OCCCCOC)c2)c1 [Compound 93]	–
48.4	CNCc1cc(-c2ccc(OCc3cccc4c3OCO4)cc2F)n(S(=O)(=O)c2cccnc2)c1 [Compound 94]	–
9.5	CNCc1cc(-c2ccc(OCc3cccc4c3OCO4)cc2F)n(S(=O)(=O)c2cccc(C#N)c2)c1 [Compound 95]	–
51.1	CNCc1cc(-c2ccc(OCc3cccc4c3OCCO4)cc2F)n(S(=O)(=O)c2cccnc2)c1 [Compound 96]	–
11.9	CNCc1cc(-c2ccc(OCc3cccc4c3OCCO4)cc2F)n(S(=O)(=O)c2cccc(C#N)c2)c1 [Compound 97]	–
485	CNCc1cc(-c2ccc(OCc3cc(F)ccc3F)cc2F)n(S(=O)(=O)c2cccc(C(F)(F)F)c2)c1 [Compound 98]	–
72.6	CNCc1cc(-c2ccc(OCCc3cc(F)cc(F)c3)cc2F)n(S(=O)(=O)c2cccnc2)c1 [Compound 99]	–
101	CNCc1cc(-c2ccc(OCc3ccoc3)cc2F)n(S(=O)(=O)c2cccnc2)c1 [Compound 100]	–
155	CNCc1cc(-c2ccc(OCc3cccnc3C)cc2F)n(S(=O)(=O)c2cccnc2)c1 [Compound A2]	–
–	CNCc1cc(-c2ccc(OCc3ccc(OC)nc3)cc2F)n(S(=O)(=O)c2cccnc2)c1 [Compound A4]	60
157	CNCc1cc(-c2ccc(OCc3ncccc3F)cc2F)n(S(=O)(=O)c2cccnc2)c1 [Compound A6]	–
–	CNCc1cc(-c2ccc(OCc3cccnn3)cc2F)n(S(=O)(=O)c2cccnc2)c1 [Compound A7]	53
–	CNCc1cc(-c2ccc(OCC3CCCO3)cc2F)n(S(=O)(=O)c2cccnc2)c1 (stereo not drawn) [Compound A14]	63
–	CNCc1cc(-c2ccc(OCC3CCO3)cc2F)n(S(=O)(=O)c2cccnc2)c1 (stereo not drawn) [Compound A15]	64
